# Reference: patent US20230125964A1, “Methods for high throughput cryopreservation of cell clusters” (Regents of the University of Minnesota, priority 2021, published 2023)
# Columns and labels:
# [1] = cited from earlier work
# [2] = test system: SC-beta islets; details: individual components and mixtures at same total concentration (44%), FIG. 3C
# Protocol: The full-strength CPA used was 22 wt % EG+22 wt % DMSO prepared in RPMI medium. To load the CPA, islets were first incubated in 20% CPA (i.e., 4.4 wt % EG+4.4 wt % DMSO) for 10 min at 21° C., followed by 50% CPA for 10 min at 4° C. and in 100% CPA for 10 min at 4° C. The islets suspension was then transferred to the cryomesh placed on a wicking material (i.e., paper towel). The CPA cocktail was wicked away through the nylon mesh and islets remained on the cryomesh. Clumping of islets was avoided. The cryomesh was quickly plunged into liquid nitrogen and stored in a liquid nitrogen tank. […]
# Quantitative viability was measured on dissociated islet cells. […] After 15 seconds of incubation, 10 μL of the suspension was pipetted onto the Countess Cell Counting Chamber Slides (Thermo Fischer Scientific; Cat #C10228), and viability was quantified using a Countess II FL cell counter (Invitrogen by Thermo Fisher Scientific; Cat #AMQAF1000).
# To optimize the CPA formulation, three overall CPA concentrations (33%, 44%, and 54%) were tested consisting of PG, EG, DMSO, or mixtures thereof. Qualitative and quantitative live/dead staining was used to measure SC-beta islet viability for each CPA after loading and unloading (FIG. 2F) and after VR. Qualitative measurements were determined by confocal imaging of intact islets after staining with acridine orange (AO) and propidium iodide (PI). […]
SMILES,Transport: share achieving normoglycemia ([1]; canine islets to mice) [%],Transport: time to normoglycemia ([1]; literature studies),islet toxicity after CPA loading and unloading [2]
"C[S+](C)[O-] [DMSO, dimethyl sulfoxide]",62,in 4 days,–
"OCCO [EG, ethylene glycol]",–,–,least islet toxicity of the three individual components
